Test results reported in US20050192299A1, “Method of treating or preventing hepatitis B virus” (priority 1992, published 2005).
“And” between values parts separate entries of the source, which are not always exact repeats. Identical values can stand only once. Like-named read-outs stand apart in the source and are kept apart here.

Legend:
HBV [1] = settings: 12 days; for chromosomally integrated HBV DNA (amount and restriction enzyme pattern): 2.2.15 cells
HBV [2] = experiment: Northern blot analysis of HBV-specific RNA transcripts in 2.2.15 cells; format: cell-based, hepatitis B virus; settings: 2.0 μM, 12 days
Protocol: Total cellular RNA was isolated according to Chomczyndki et al. (Chomczynsk, P., and Sacchi, N., “Single Step Method for RNA Isolation by Acid Guanidinium Thiocyanate-Phenol-Chloroform Extraction,” Analytical Biochemistry, 162: 156-159, 1987). The RNA (20 μg per lane) was electrophoresed through 1% agarose gel containing 1.1×formaldehyde and transferred to Hybond-N membrane. The immobilized RNA was hybridized with ^32P-labeled HBV DNA probe and the membrane was autoradiographed as described above.
Northern blot analysis was performed to analyze HBV RNA transcripts. Three major transcripts of approximately 3.5, 2.5, and 2.1 Kb were detected in the total cellular RNA extract.

HBV [3] = test system: HBV
mitochondria DNA = experiment: cells; format: cell-based; settings: for IC50: Homo sapiens, CCRF-CEM, CEM cells
Protocol: The CEM cells (5×10^4) cells were collected and freeze-thawed three times. The cell lysate was incubated with RNase (10 μg/ml) at 37° C. for 30 minutes. The sample was treated with proteinase K (100 μg/ml) at 55° C. for 1 hour. A 0.8 volume of supersaturated Nal (2.5 gNaI in 1 ml hot water) was added to the sample and heated at 90° C. for 10 minutes. The DNA was immobilized on nitrocellulose paper by using a slot blot apparatus (Schleicher & Schuell, Keene, NH). The mtDNA on the nitrocellulose paper was detected with a mtDNA specific probe as described previously (Chen, C. H., Cheng, Y. C., “relayed Cytotoxicity and Selective Loss of Mitochondria DNA in Cells Treated with the Anti-Human Immunodeficiency Virus Compound 2′,3′-Dideoxycytidine,” J. Biol. Chem. 264: 11934-11937, 1989).
(§1) Mitochondria DNA content was measured by slot blot hybridization analysis. […] Thus, D4C would be expected to have a mitochondria effect before the anti-HBV effect was achieved as the same phenomenon observed in treatment with ddC.

[4] = test system: CEM (T lymphoblastoid cells) cells; experiment: Cytotoxicity in CEM cells (cell number at day 4); format: cell-based; settings: 4 days
Protocol: CEM (T lymphoblastoid cells) cells were inoculated in 5 ml RPMI 1640 supplemented with 5% fetal bovine serum at a concentration of 2×10^3 cells per ml. The cells were incubated with different concentrations of compounds for 4 days. At day 4, the cell number was determined by a coulter counter or a hemocytometer.
as §1

CEM cells = experiment: CEM growth with dialyzed FBS (cell number on days 2, 4 and 6); format: cell-based; settings: Homo sapiens, CCRF-CEM, RPMI 1640 + 5% dialyzed FBS, cell number versus days in culture, read-out: ID50 (CEM cell growth, toxicity)
Protocol: Six wells were seeded as controls. These wells were untreated. […] The cells were pipetted to break clumps, and then 1 ml was removed from each well and diluted into 9 ml saline. The saline+cells were pipetted well to break clumps and counted via a coutler counter. To determine ID50, cell number was plotted versus days in culture.

human cytidine deaminase = human cytidine deaminase (Homo sapiens, UniProt P32320); experiment: Deamination by deoxycytidine deaminase (HPLC analysis); format: biochemical; settings: 37° C., 16 hours
human cytidine deaminase, sequence (P32320 whole entry): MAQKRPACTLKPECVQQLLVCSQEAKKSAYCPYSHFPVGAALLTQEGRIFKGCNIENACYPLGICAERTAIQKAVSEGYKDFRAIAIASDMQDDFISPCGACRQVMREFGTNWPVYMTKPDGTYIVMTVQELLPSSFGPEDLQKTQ
Protocol: After each time point, 100 μl of acetonitrile were added to the reaction mixture and agitated. The precipitated proteins were removed by centrifugation, and the supernatent was lyophilized to dryness. The samples were reconstituted with 200 μl of HPLC mobile phase buffer and analyzed on an Alltech RP-18 column. […] The mobile phase was 10% acetonitrile/water unless specified otherwise, and the flow rate was 0.8 ml/minutes.

[5] = read-out: MTID30 (concentration which caused a 50% reduction in mitochondria DNA content)

deamination by deoxycytidine deaminase (human cytidine deaminase) | SMILES | IC50 (HBV [3]) | selectivity ratio (HBV [3]) | IC50 (mitochondria DNA; [5]) | other results
 | Nc1nc(=O)n([C@H]2CS[C@@H](CO)O2)cc1F (racemic) [5-fluoro-3′-thia-2′,3′-dideoxycytidine, (±)5-fluoro-3′-thia-2′,3′-dideoxycytidine] | 100 nM | > 2000 | > 200000 nM | chromosomally integrated HBV DNA (amount and restriction enzyme pattern) (HBV [1]): unaltered; chromosomally integrated HBV DNA (amount and restriction enzyme pattern) (HBV [1]; listed as 5-fluoro-3′-thia-2′,3-dideoxycytidine): not found to affect the integrated HBV DNAs; episomal HBV DNA in 2.2.15 cells (HBV [1]; different concentrations): decreased in a dose dependent manner; HBV specific RNA transcripts (3.5, 2.5, 2.1 Kb) (HBV [2]): not affected at all; effect on mitochondria DNA synthesis (mitochondria DNA): no effect on mitochondria DNA synthesis was observed
 | Nc1ccn(C2COC(CO)O2)c(=O)n1 (single isomer, unassigned; (-)) [(−) OddC, (−)-L-B-dioxolane-cytosine] | < 1 nM |  |  | 
 | Nc1ccn([C@H]2C[C@H](F)[C@@H](CO)O2)c(=O)n1 [3′-FddC, 3′-fluoro-2′,3′-dideoxycytidine] | 1600 nM | 28.1 | 110 nM | inhibition (HBV [3]; 2 µM): ~50%; ED50 (concentration causing 50% reduction in cell number) [4]: 45000 nM
no sign of deamination at all | Nc1ccn([C@@H]2CS[C@H](CO)O2)c(=O)n1 [(−)3′-thia-2′,3′-dideoxycytidine] |  |  |  | 
 | Nc1ccn([C@H]2C=C[C@@H](CO)O2)c(=O)n1 [D4C, 2′,3′-didehydro-2′,3′-dideoxycytidine] | 2400 nM | 9.2 | 2000 nM | ED50 (concentration causing 50% reduction in cell number) [4]: 22000 nM; IC50 (mitochondria DNA; read-out: MtID50): 2000 nM
 | Nc1ccn([C@H]2CC[C@@H](CO)O2)c(=O)n1 [ddC, 2′,3′ dideoxycytidine] | 3800 nM and 3600 nM | 2.6 | 22 nM | IC50 (mitochondria DNA; read-out: MtID50): 22 nM
no deamination occurred | Nc1ccn([C@@H]2CS[C@@H](CO)O2)c(=O)n1 [α-3′-Thia-2′,3′-dideoxycytidine] |  |  |  | 

SMILES | deamination by deoxycytidine deaminase (human cytidine deaminase) | IC50 (HBV [3]) | selectivity ratio (HBV [3]) | IC50 (mitochondria DNA; [5]) | other results
Nc1ccn([C@H]2CS[C@@H](CO)O2)c(=O)n1 [(+)3′-thia-2′,3′-dideoxycytidine] | ~100% |  |  |  | IC50 (CEM cells): 1260 nM; inhibition (HBV [3]): ~50%
